For one assay, the target named is T1, TOP1 (Homo sapiens, UniProt P11387).
T1 construct: paired pre-treatment and on-treatment tumor biopsies (C1D2, 2–4 h after dosing) from 6 patients receiving LMP744 at the MTD; from tissue; host or cells: core needle tumor biopsies from patients (LMP744 expansion cohort)
T1 sequence (P11387 1-765): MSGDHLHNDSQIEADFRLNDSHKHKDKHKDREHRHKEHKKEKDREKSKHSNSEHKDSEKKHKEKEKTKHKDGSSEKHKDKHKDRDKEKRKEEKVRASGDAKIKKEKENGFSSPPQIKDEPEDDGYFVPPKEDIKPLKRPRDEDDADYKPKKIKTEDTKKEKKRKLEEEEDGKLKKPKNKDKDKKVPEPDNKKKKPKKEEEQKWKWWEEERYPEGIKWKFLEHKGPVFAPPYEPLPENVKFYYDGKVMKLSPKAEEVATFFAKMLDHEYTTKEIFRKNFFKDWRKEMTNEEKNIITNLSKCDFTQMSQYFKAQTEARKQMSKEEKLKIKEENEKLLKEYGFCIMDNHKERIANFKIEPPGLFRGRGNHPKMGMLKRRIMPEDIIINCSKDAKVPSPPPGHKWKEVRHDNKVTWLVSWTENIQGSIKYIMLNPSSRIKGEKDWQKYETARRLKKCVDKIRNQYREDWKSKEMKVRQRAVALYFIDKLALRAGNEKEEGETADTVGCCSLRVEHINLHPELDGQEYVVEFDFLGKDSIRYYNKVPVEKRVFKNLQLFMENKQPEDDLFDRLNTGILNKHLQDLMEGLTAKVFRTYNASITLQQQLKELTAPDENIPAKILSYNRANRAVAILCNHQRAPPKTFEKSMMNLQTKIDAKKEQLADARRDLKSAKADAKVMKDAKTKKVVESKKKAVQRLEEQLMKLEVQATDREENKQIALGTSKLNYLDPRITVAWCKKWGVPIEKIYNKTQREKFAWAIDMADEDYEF
As to the kind of experiment: qIF of paired tumor biopsies: nuclear TOP1. The class given is in vivo. From the text: The LMP744 protocol collected pre-treatment (baseline) and on-treatment paired biopsies from patients in the expansion cohort. Core needle tumor biopsies (18-gauge) were collected and flash-frozen at point of collection per NCI SOPs (https://dctd.cancer.gov/ResearchResources/biomarkers/docs/par/SOP340507_Biopsy_Frozen.pdf) as described to preserve labile post-translational modifications such as phosphorylation. Biopsy pairs were thawed in formalin, fixed in paraffin embedded together with control tissues following NCI SOP340550 (https://dctd.cancer.gov/ResearchResources/biomarkers/DDR3/SOP340550_Biopsy_Section_Testis_Jejunum_Controls.pdf). TOP1 and TOP1cc were measured with a cocktail containing custom-conjugated rabbit monoclonal antibody anti-TOP1-DIG (Abcam, EPR5376 (2)) and mouse monoclonal antibody anti-TOP1cc (clone 1.1A [34, 35], EMD Millipore) that were detected with reporter secondary antibodies AlexaFluor-647 IgG fraction monoclonal mouse anti-digoxin (Jackson ImmunoResearch) and goat/anti-mouse AlexaFluor-488, respectively. Phosphorylated KAP1 (pKAP1, phosphorylated at S824) was measured using custom-conjugated pKAP1-pS824-DNP (Abcam, EPR5248) and detected with AlexaFluor-488 conjugated with anti-dinitrophenyl-KLH rabbit IgG Antibody Fraction (DNP-488, ThermoFisher). Validated immunofluorescence assays (IFAs) were used to measure levels of γH2AX, phosphorylated NBS1 (pNBS1, phosphorylated at Ser343), and RAD51 [15, 17, 19, 29]. Antibodies in all clinical immunofluorescence staining protocols were used as a cocktail with β-catenin as a tumor marker as previously described. After staining with primary antibodies, washing, and staining with secondary antibodies, slides were rinsed in 1X PBS and blotted to remove excess liquid. Slides were cured overnight with Prolong Gold Antifade Reagent (Invitrogen) in the dark and imaged the following day. Confocal images (12-bit) were acquired at 20X using a Nikon A1 scan head on a Nikon 90i microscope at 0.24 µm/pixel to measure nuclear TOP1 and nuclear foci of TOP1cc and RAD51. […] TOP1, γH2AX, pNBS1, and pKAP1 were measured as the percentage of DAPI-stained tumor cell nuclear area that was positive for the biomarker (% NAP); RAD51 [19] and TOP1cc was measured as a function of the percentage of nuclei with ≥ 5 foci (RAD51) or ≥ 19 foci (TOP1cc). Apoptosis was measured using a validated IFA of tumor cells positive for both cCasp3 blebbing in the cytoplasm and γH2AX in the nucleus. Anti-SLFN11 rabbit monoclonal antibody (Cell Signaling Technology, clone D8W1B) was detected by immunohistochemistry (IHC) using Bond Polymer Detection kit (Leica) and scanned in 20X widefield Aperio (Leica), and the distribution of staining intensity of tumor cell nuclei graded as 0, 1 + , 2 + or 3 + was converted into an H-score. […]

In assay [1] the test system is naturally occurring lymphomas. The arrangement: method as in PMID 30061364. The settings on record: canines with lymphomas; cited from earlier work.
A further assay has as its system pNBS1. In words: qIF of paired tumor biopsies: nuclear pNBS1. Type of assay: in vivo, human. The settings on record: 6 patients at MTD; assay values never ≥ 4% NAP. From the text: The LMP744 protocol collected pre-treatment (baseline) and on-treatment paired biopsies from patients in the expansion cohort. Core needle tumor biopsies (18-gauge) were collected and flash-frozen at point of collection per NCI SOPs (https://dctd.cancer.gov/ResearchResources/biomarkers/docs/par/SOP340507_Biopsy_Frozen.pdf) as described to preserve labile post-translational modifications such as phosphorylation. Biopsy pairs were thawed in formalin, fixed in paraffin embedded together with control tissues following NCI SOP340550 (https://dctd.cancer.gov/ResearchResources/biomarkers/DDR3/SOP340550_Biopsy_Section_Testis_Jejunum_Controls.pdf). TOP1 and TOP1cc were measured with a cocktail containing custom-conjugated rabbit monoclonal antibody anti-TOP1-DIG (Abcam, EPR5376 (2)) and mouse monoclonal antibody anti-TOP1cc (clone 1.1A [34, 35], EMD Millipore) that were detected with reporter secondary antibodies AlexaFluor-647 IgG fraction monoclonal mouse anti-digoxin (Jackson ImmunoResearch) and goat/anti-mouse AlexaFluor-488, respectively. Phosphorylated KAP1 (pKAP1, phosphorylated at S824) was measured using custom-conjugated pKAP1-pS824-DNP (Abcam, EPR5248) and detected with AlexaFluor-488 conjugated with anti-dinitrophenyl-KLH rabbit IgG Antibody Fraction (DNP-488, ThermoFisher). […]

Turning to `COc1cc2c3c(n(CCCNCCO)c(=O)c2cc1OC)-c1cc2c(cc1C3=O)OCO2` [LMP744], the “Nuclear TOP1, change in the biopsy cohort” value on TOP1 (6 patients at MTD, P = 0.1448) is given as “no significant changes”. Further, the “Nuclear TOP1” value at TOP1 (patient 29, MTD, C1D2) is “neither biomarker changed with treatment”. Also, the “Nuclear TOP1” value at TOP1 (patient 31, MTD, C1D2) is given as “decreased nearly to background levels”. Also, at TOP1 (patient 33, MTD, C1D2), the “Decrease of nuclear TOP1” value stood at 57%. Moreover, in assay [1], the Responders is on record as 13 of 19 and the Response rate is reported as 68.4%. Besides, the pNBS1 pharmacodynamic response entry in the assay on pNBS1 is “failed to elicit a pNBS1 pharmacodynamic response”.

`COc1cc2c3c(n(CCCn4ccnc4)c(=O)c2cc1OC)-c1cc2c(cc1C3=O)OCO2` [LMP776]: in assay [1], the Responders was 7 of 24 and the Response rate is 29.2%.
